{"source": "patent US8834858B2", "about": "“Treatment for dyslipidemia” (Solvotrin Therapeutics Ltd., priority 2011, dated 2014)", "key": {"prostaglandin D2 (PGD2)": {"test_system": "prostaglandin D2 (PGD2)", "assay": "NHP crossover study: serum PGD2", "type": "in vivo, cynomolgus monkeys", "details": "over 24 hours post dosing, equimolar doses", "experimental": "For TxB2, an additional 0.4 mL whole blood aliquots were placed in siliconised glass tubes to induce a clotting response and the supernatants were analysed for TxB2 using a Luminex ELISA immunoassay. PGD2 was analysed from serum directly using a Luminex ELISA immunoassay."}, "[1]": {"test_system": "LDL cholesterol, HDL cholesterol, TG", "details": "adult dyslipidemias; cited from earlier work"}, "[2]": {"details": "cited from earlier work"}, "[3]": {"details": "cited from earlier work", "remark": "listed apart in the source"}, "[4]": {"test_system": "LDL cholesterol, Apolipoprotein B, TGs", "assay": "NHP crossover study: clinical chemistry (LDL-C, ApoB, TG)", "method": "(§1) The primary study endpoint is change in plasma LDL cholesterol and Apolipoprotein B at 48 hours. An aliquot of 300 μL of serum transferred to a cryovial and was immediately placed in a freezer set to maintain −70° C. until analyzed for clinical chemistry (LDL cholesterol, Apolipoprotein B, TGs, glucose) using a standard Roche Analyser."}, "serum glucose": {"test_system": "serum glucose", "assay": "NHP crossover study: serum glucose", "method": "as §1"}, "[5]": {"details": "8 and 14 months, on statin therapy; cited from earlier work"}, "[6]": {"details": "cited from earlier work", "remark": "listed apart in the source"}, "[7]": {"details": "secondary prevention; cited from earlier work"}, "LDL, HDL": {"test_system": "LDL, HDL", "details": "cited from earlier work"}, "[8]": {"details": "crystalline nicotinic acid (>1 g), cited from earlier work"}, "blood glucose": {"test_system": "blood glucose", "details": "cited from earlier work; for patients with diabetes requiring a change in hypoglycemic therapy: in vivo"}, "PGD2 receptor-1 (DP1)": {"biological_target": "PGD2 receptor-1 (DP1) (Homo sapiens, UniProt Q13258)", "sequence (Q13258 whole entry)": "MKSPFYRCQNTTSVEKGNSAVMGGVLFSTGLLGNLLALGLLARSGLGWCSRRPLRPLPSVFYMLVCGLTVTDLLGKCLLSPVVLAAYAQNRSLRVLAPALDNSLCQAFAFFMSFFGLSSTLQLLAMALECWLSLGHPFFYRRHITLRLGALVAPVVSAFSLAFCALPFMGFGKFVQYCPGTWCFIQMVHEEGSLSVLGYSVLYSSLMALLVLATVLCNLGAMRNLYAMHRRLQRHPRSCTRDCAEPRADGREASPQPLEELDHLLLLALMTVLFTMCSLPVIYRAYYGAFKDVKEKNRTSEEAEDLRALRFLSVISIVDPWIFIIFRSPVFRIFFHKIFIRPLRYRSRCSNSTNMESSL", "details": "nicotinic acid without vs with added laropiprant (Kush 2009); cited from earlier work"}, "[9]": {"details": "baseline to 48 hours, 28 mg/kg niacin equivalents daily oral gavage, n=6"}}, "note": "Read-outs that look alike come from different tables or passages of the source.", "data": [{"smiles": "O=C(O)c1cccnc1", "note": "[nicotinic acid]", "values": [{"measurement": "PGD2 AUC", "setting": "prostaglandin D2 (PGD2)", "result": "128.3 ± 38.2", "unit": "ng·h/mL"}, {"measurement": "HDL cholesterol", "setting": "[1]", "result": "+15 to +35%"}, {"measurement": "LDL cholesterol", "setting": "[1]", "result": "−5 to −25", "unit": "%"}, {"measurement": "TG", "setting": "[1]", "result": "−20 to −50", "unit": "%"}, {"measurement": "HDL increase", "setting": "[2]; 1,000 mg once daily added to simvastatin", "result": 21, "unit": "%"}, {"measurement": "carotid intima-media thickness (CIMT)", "setting": "[2]; after 12 months", "result": "unchanged"}, {"measurement": "patients discontinuing treatment because of flushing", "setting": "[3]; Jacobson 2010", "result": "5-20%"}, {"measurement": "users experiencing mild or moderate flushing", "setting": "[3]; review of clinical trials", "result": "> 60", "unit": "%"}, {"measurement": "TG levels at 48 hours (follow up)", "setting": "[4]; 48 hours", "result": "64 ± 31", "unit": "mg/dL"}, {"measurement": "TG levels at baseline", "setting": "[4]; baseline", "result": "50 ± 10", "unit": "mg/dL"}, {"measurement": "increase in TG levels (non-significant)", "setting": "[4]; baseline to 48 hours", "result": 23.3, "unit": "%"}, {"measurement": "reduction from baseline in LDL cholesterol", "setting": "[4]; [9]", "result": 33, "unit": "%"}, {"measurement": "reduction from baseline in apolipoprotein B", "setting": "[4]; [9]", "result": 24, "unit": "%"}, {"measurement": "serum glucose change from baseline", "setting": "serum glucose; 1 hour post dose", "result": "significant decrease"}, {"measurement": "serum glucose after feeding", "setting": "serum glucose; following animal feeding between 1-2 hours post dose", "result": "rebound to baseline levels"}, {"measurement": "CIMT", "setting": "[5]", "result": "significant reduction"}, {"measurement": "reduction of incidence of non-fatal re-infarction / risk of myocardial infarction", "setting": "[6]; five year follow up, men with history of MI", "result": 27, "unit": "%"}, {"measurement": "decrease in all-cause (long-term) mortality", "setting": "[6]; mean follow-up of 15 years", "result": 11, "unit": "%"}, {"measurement": "coronary artery revascularization, non-fatal MI, stroke and TIA", "setting": "[7]", "result": "significant reduction"}, {"measurement": "additional lowering of LDL levels", "setting": "LDL, HDL; 1 g/day added to stable statin", "result": 8, "unit": "%"}, {"measurement": "additional raise of HDL levels", "setting": "LDL, HDL; 1 g/day added to stable statin", "result": 24, "unit": "%"}, {"measurement": "additional lowering of LDL", "setting": "LDL, HDL; 2 g/day added to stable statin", "result": 20, "unit": "%"}, {"measurement": "additional raise of HDL cholesterol levels", "setting": "LDL, HDL; 2 g/day added to stable statin", "result": 27, "unit": "%"}, {"measurement": "half life", "setting": "[8]; oral", "result": "about 60 minutes"}, {"measurement": "time to peak plasma concentrations", "setting": "[8]; oral", "result": "30 to 60", "unit": "min"}, {"measurement": "oral absorption", "setting": "[8]", "result": "almost completely absorbed"}, {"measurement": "increase in fingerstick glucose levels", "setting": "blood glucose; doses <2.5 g", "result": "4% to 5"}, {"measurement": "patients with diabetes requiring a change in hypoglycemic therapy", "setting": "blood glucose", "result": "10-35%"}, {"measurement": "patients with diabetes requiring a change in hypoglycemic therapy", "setting": "blood glucose; listed as Nicotinic acid", "result": "10% to 35"}, {"measurement": "rate of moderate/severe flushing", "setting": "PGD2 receptor-1 (DP1)", "result": 50, "unit": "%"}]}]}
